According to patent US4464385A, “Treatment of diabetic complications with hydantoins” (Alcon Laboratories, Inc., priority 1982, dated 1984):

Tests used:
[1] = test system: aldose reductase; details: U.S. Pat. No. 4,130,714; cited from earlier work
[2] = test system: cataracts in rats; assay: Prevention or retardation of cataracts in galactose-fed rats; type: in vivo, rat; details: 30% galactose diet, A,C,E 0.0025%, B,D 0.01%
In short: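 Rats given test compound mixed into diet (by % of total feed weight; 0.01% designed to supply 20 mg/kg/day) ad libitum for thirty days after a two-day chow acclimatization, twelve animals per treatment. Eyes examined by handheld ophthalmoscope and/or penlight and each eye graded.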

O=C1NC(=O)C2(CCSc3ccc(F)cc32)N1 (single isomer, unassigned) [d-6'-fluoro-spiro[imidazolidine-4,4'-thiochroman]-2,5' dione]
activity in preventing chronic diabetic complications [1]: enhanced activity

O=C1NC(=O)C2(CCOc3ccc(F)cc32)N1 (stereo not shown) [E]
% of Total Eyes, + (vacuole) ([2]; Study Day 2): 0%
% of Total Eyes, - (Normal) ([2]; Study Day 2): 100.0%
% of Total Eyes, N (nuclear cataract) ([2]; Study Day 2): 0%
% of Total Eyes, S (snowflake) ([2]; Study Day 2): 0%
Number of Eyes Observed, + (vacuole) ([2]; Study Day 2): 0 eyes
Number of Eyes Observed, - (Normal) ([2]; Study Day 2): 24 eyes
Number of Eyes Observed, N (nuclear cataract) ([2]; Study Day 2): 0 eyes
Number of Eyes Observed, S (snowflake) ([2]; Study Day 2): 0 eyes
Number of Eyes Observed, ± ([2]; Study Day 2): 0 eyes
% of Total Eyes, + (vacuole) ([2]; Study Day 3): 0%
% of Total Eyes, - (Normal) ([2]; Study Day 3): 100.0%
% of Total Eyes, N (nuclear cataract) ([2]; Study Day 3): 0%
% of Total Eyes, S (snowflake) ([2]; Study Day 3): 0%
Number of Eyes Observed, + (vacuole) ([2]; Study Day 3): 0 eyes
Number of Eyes Observed, - (Normal) ([2]; Study Day 3): 24 eyes
Number of Eyes Observed, N (nuclear cataract) ([2]; Study Day 3): 0 eyes
Number of Eyes Observed, S (snowflake) ([2]; Study Day 3): 0 eyes
Number of Eyes Observed, ± ([2]; Study Day 3): 0 eyes
% of Total Eyes, + (vacuole) ([2]; Study Day 4): 0%
% of Total Eyes, - (Normal) ([2]; Study Day 4): 100.0%
% of Total Eyes, N (nuclear cataract) ([2]; Study Day 4): 0%
% of Total Eyes, S (snowflake) ([2]; Study Day 4): 0%
Number of Eyes Observed, + (vacuole) ([2]; Study Day 4): 0 eyes
Number of Eyes Observed, - (Normal) ([2]; Study Day 4): 24 eyes
Number of Eyes Observed, N (nuclear cataract) ([2]; Study Day 4): 0 eyes
Number of Eyes Observed, S (snowflake) ([2]; Study Day 4): 0 eyes
Number of Eyes Observed, ± ([2]; Study Day 4): 0 eyes
% of Total Eyes, + (vacuole) ([2]; Study Day 5): 0%
% of Total Eyes, - (Normal) ([2]; Study Day 5): 100.0%
% of Total Eyes, N (nuclear cataract) ([2]; Study Day 5): 0%
% of Total Eyes, S (snowflake) ([2]; Study Day 5): 0%
Number of Eyes Observed, + (vacuole) ([2]; Study Day 5): 0 eyes
Number of Eyes Observed, - (Normal) ([2]; Study Day 5): 24 eyes
Number of Eyes Observed, N (nuclear cataract) ([2]; Study Day 5): 0 eyes
Number of Eyes Observed, S (snowflake) ([2]; Study Day 5): 0 eyes
Number of Eyes Observed, ± ([2]; Study Day 5): 0 eyes
% of Total Eyes, + (vacuole) ([2]; Study Day 6): 0%
% of Total Eyes, - (Normal) ([2]; Study Day 6): 100.0%
% of Total Eyes, N (nuclear cataract) ([2]; Study Day 6): 0%
% of Total Eyes, S (snowflake) ([2]; Study Day 6): 0%
Number of Eyes Observed, + (vacuole) ([2]; Study Day 6): 0 eyes
Number of Eyes Observed, - (Normal) ([2]; Study Day 6): 24 eyes
Number of Eyes Observed, N (nuclear cataract) ([2]; Study Day 6): 0 eyes
Number of Eyes Observed, S (snowflake) ([2]; Study Day 6): 0 eyes
Number of Eyes Observed, ± ([2]; Study Day 6): 0 eyes
% of Total Eyes, + (vacuole) ([2]; Study Day 8): 0%
% of Total Eyes, - (Normal) ([2]; Study Day 8): 100.0%
% of Total Eyes, N (nuclear cataract) ([2]; Study Day 8): 0%
% of Total Eyes, S (snowflake) ([2]; Study Day 8): 0%
Number of Eyes Observed, + (vacuole) ([2]; Study Day 8): 0 eyes
Number of Eyes Observed, - (Normal) ([2]; Study Day 8): 24 eyes
Number of Eyes Observed, N (nuclear cataract) ([2]; Study Day 8): 0 eyes
Number of Eyes Observed, S (snowflake) ([2]; Study Day 8): 0 eyes
Number of Eyes Observed, ± ([2]; Study Day 8): 0 eyes
% of Total Eyes, + (vacuole) ([2]; Study Day 10): 0%
% of Total Eyes, - (Normal) ([2]; Study Day 10): 100.0%
% of Total Eyes, N (nuclear cataract) ([2]; Study Day 10): 0%
% of Total Eyes, S (snowflake) ([2]; Study Day 10): 0%
Number of Eyes Observed, + (vacuole) ([2]; Study Day 10): 0 eyes
Number of Eyes Observed, - (Normal) ([2]; Study Day 10): 24 eyes
Number of Eyes Observed, N (nuclear cataract) ([2]; Study Day 10): 0 eyes
Number of Eyes Observed, S (snowflake) ([2]; Study Day 10): 0 eyes
Number of Eyes Observed, ± ([2]; Study Day 10): 0 eyes
% of Total Eyes, + (vacuole) ([2]; Study Day 12): 0%
% of Total Eyes, - (Normal) ([2]; Study Day 12): 95.8%
% of Total Eyes, N (nuclear cataract) ([2]; Study Day 12): 0%
% of Total Eyes, S (snowflake) ([2]; Study Day 12): 0%
Number of Eyes Observed, + (vacuole) ([2]; Study Day 12): 0 eyes
Number of Eyes Observed, - (Normal) ([2]; Study Day 12): 23 eyes
Number of Eyes Observed, N (nuclear cataract) ([2]; Study Day 12): 0 eyes
Number of Eyes Observed, S (snowflake) ([2]; Study Day 12): 0 eyes
Number of Eyes Observed, ± ([2]; Study Day 12): 1 eyes
% of Total Eyes, + (vacuole) ([2]; Study Day 14): 0%
% of Total Eyes, - (Normal) ([2]; Study Day 14): 87.5%
% of Total Eyes, N (nuclear cataract) ([2]; Study Day 14): 0%
% of Total Eyes, S (snowflake) ([2]; Study Day 14): 0%
Number of Eyes Observed, + (vacuole) ([2]; Study Day 14): 0 eyes
Number of Eyes Observed, - (Normal) ([2]; Study Day 14): 21 eyes
Number of Eyes Observed, N (nuclear cataract) ([2]; Study Day 14): 0 eyes
Number of Eyes Observed, S (snowflake) ([2]; Study Day 14): 0 eyes
Number of Eyes Observed, ± ([2]; Study Day 14): 3 eyes
% of Total Eyes, + (vacuole) ([2]; Study Day 16): 0%
% of Total Eyes, - (Normal) ([2]; Study Day 16): 83.3%
% of Total Eyes, N (nuclear cataract) ([2]; Study Day 16): 0%
% of Total Eyes, S (snowflake) ([2]; Study Day 16): 0%
Number of Eyes Observed, + (vacuole) ([2]; Study Day 16): 0 eyes
Number of Eyes Observed, - (Normal) ([2]; Study Day 16): 20 eyes
Number of Eyes Observed, N (nuclear cataract) ([2]; Study Day 16): 0 eyes
Number of Eyes Observed, S (snowflake) ([2]; Study Day 16): 0 eyes
Number of Eyes Observed, ± ([2]; Study Day 16): 4 eyes
% of Total Eyes, + (vacuole) ([2]; Study Day 18): 0%
% of Total Eyes, - (Normal) ([2]; Study Day 18): 58.4%
% of Total Eyes, N (nuclear cataract) ([2]; Study Day 18): 0%
% of Total Eyes, S (snowflake) ([2]; Study Day 18): 0%
Number of Eyes Observed, + (vacuole) ([2]; Study Day 18): 0 eyes
Number of Eyes Observed, - (Normal) ([2]; Study Day 18): 14 eyes
Number of Eyes Observed, N (nuclear cataract) ([2]; Study Day 18): 0 eyes
Number of Eyes Observed, S (snowflake) ([2]; Study Day 18): 0 eyes
Number of Eyes Observed, ± ([2]; Study Day 18): 10 eyes
% of Total Eyes, + (vacuole) ([2]; Study Day 20): 4.2%
% of Total Eyes, - (Normal) ([2]; Study Day 20): 12.5%
% of Total Eyes, N (nuclear cataract) ([2]; Study Day 20): 0%
% of Total Eyes, S (snowflake) ([2]; Study Day 20): 41.6%
Number of Eyes Observed, + (vacuole) ([2]; Study Day 20): 1 eyes
Number of Eyes Observed, - (Normal) ([2]; Study Day 20): 3 eyes
Number of Eyes Observed, N (nuclear cataract) ([2]; Study Day 20): 0 eyes
Number of Eyes Observed, S (snowflake) ([2]; Study Day 20): 10 eyes
Number of Eyes Observed, ± ([2]; Study Day 20): 10 eyes
% of Total Eyes, + (vacuole) ([2]; Study Day 22): 8.3%
% of Total Eyes, - (Normal) ([2]; Study Day 22): 0%
% of Total Eyes, N (nuclear cataract) ([2]; Study Day 22): 0%
% of Total Eyes, S (snowflake) ([2]; Study Day 22): 66.7%
Number of Eyes Observed, + (vacuole) ([2]; Study Day 22): 2 eyes
Number of Eyes Observed, - (Normal) ([2]; Study Day 22): 0 eyes
Number of Eyes Observed, N (nuclear cataract) ([2]; Study Day 22): 0 eyes
Number of Eyes Observed, S (snowflake) ([2]; Study Day 22): 16 eyes
Number of Eyes Observed, ± ([2]; Study Day 22): 6 eyes
% of Total Eyes, + (vacuole) ([2]; Study Day 24): 12.5%
% of Total Eyes, - (Normal) ([2]; Study Day 24): 0%
% of Total Eyes, N (nuclear cataract) ([2]; Study Day 24): 0%
% of Total Eyes, S (snowflake) ([2]; Study Day 24): 83.3%
Number of Eyes Observed, + (vacuole) ([2]; Study Day 24): 3 eyes
Number of Eyes Observed, - (Normal) ([2]; Study Day 24): 0 eyes
Number of Eyes Observed, N (nuclear cataract) ([2]; Study Day 24): 0 eyes
Number of Eyes Observed, S (snowflake) ([2]; Study Day 24): 20 eyes
Number of Eyes Observed, ± ([2]; Study Day 24): 1 eyes
% of Total Eyes, + (vacuole) ([2]; Study Day 26): 16.7%
% of Total Eyes, - (Normal) ([2]; Study Day 26): 0%
% of Total Eyes, N (nuclear cataract) ([2]; Study Day 26): 0%
% of Total Eyes, S (snowflake) ([2]; Study Day 26): 83.3%
Number of Eyes Observed, + (vacuole) ([2]; Study Day 26): 4 eyes
Number of Eyes Observed, - (Normal) ([2]; Study Day 26): 0 eyes
Number of Eyes Observed, N (nuclear cataract) ([2]; Study Day 26): 0 eyes
Number of Eyes Observed, S (snowflake) ([2]; Study Day 26): 20 eyes
Number of Eyes Observed, ± ([2]; Study Day 26): 0 eyes
% of Total Eyes, + (vacuole) ([2]; Study Day 28): 8.3%
% of Total Eyes, - (Normal) ([2]; Study Day 28): 0%
% of Total Eyes, N (nuclear cataract) ([2]; Study Day 28): 0%
% of Total Eyes, S (snowflake) ([2]; Study Day 28): 91.7%
Number of Eyes Observed, + (vacuole) ([2]; Study Day 28): 2 eyes
Number of Eyes Observed, - (Normal) ([2]; Study Day 28): 0 eyes
Number of Eyes Observed, N (nuclear cataract) ([2]; Study Day 28): 0 eyes
Number of Eyes Observed, S (snowflake) ([2]; Study Day 28): 22 eyes
Number of Eyes Observed, ± ([2]; Study Day 28): 0 eyes
% of Total Eyes, + (vacuole) ([2]; Study Day 30): 4.2%
% of Total Eyes, - (Normal) ([2]; Study Day 30): 0%
% of Total Eyes, N (nuclear cataract) ([2]; Study Day 30): 0%
% of Total Eyes, S (snowflake) ([2]; Study Day 30): 95.8%
Number of Eyes Observed, + (vacuole) ([2]; Study Day 30): 1 eyes
Number of Eyes Observed, - (Normal) ([2]; Study Day 30): 0 eyes
Number of Eyes Observed, N (nuclear cataract) ([2]; Study Day 30): 0 eyes
Number of Eyes Observed, S (snowflake) ([2]; Study Day 30): 23 eyes
Number of Eyes Observed, ± ([2]; Study Day 30): 0 eyes
